Results taken from US7351837B1, “Thermally cleavable surfactants without deprotonation” (Sandia Corporation, priority 2004, dated 2008).

Legend:
Format in all cases: physicochemical
[1] = critical micelle concentration by dynamic surface tension (maximum bubble pressure method); conditions: aqueous solution
Description: The dynamic surface tension measurements were conducted using a SENSADYNE® QC3000 dynamic surface tensiometer (available from the SENSADYNE® Instruments Division of the Chem-Dyne Research Corporation, Mesa, Ariz.) that utilizes the maximum bubble pressure method. The fundamental operating principles and theoretical considerations of this method are explained in detail elsewhere, and a brief summary only is given here. Two glass probes with different orifice diameters (0.5 and 4.0 mm) were submerged in an aqueous surfactant solution and nitrogen was bubbled through the samples. Dry nitrogen was used as the bubble source gas and was delivered to the instrument at 50 psi. The instrument was operated at a bubble frequency of 0.5 Hz to approximate equilibrium surface tension values for each sample. The differential pressure signal generated by bubble formation is related to the interfacial surface tension of the liquid and gas. Surface tension calibration was carried out by measuring the surface tension of deionized water and ethanol and comparing to known literature values. Solution temperature was monitored with a calibrated thermistor (± 0.1° C.) attached to the orifice probes. Instrumental calibration was conducted for every change in experimental conditions and after prolonged periods of instrumental quiescence. All experiments were conducted at 25.0±0.2° C. unless otherwise noted. […]

[2] = retro-DA degradation via surface tension; conditions: 10 mM aqueous solution
Description: The surfactants of the invention undergo the retro-DA reaction after exposure to elevated temperatures. […] Data were recorded for all experiments via a computer interface using the […]3000 version 5.3 software. […] Additional measurements to determine the effect of temperature on the rates of surfactant dissociation and loss of surface active properties were conducted on 10 mM solutions of surfactant 3. The data shown in FIG. 3 clearly indicate that the temperature at which the samples are elevated to has a dramatic impact on the rate at which the surface active properties are lost in these solutions. […] At the lowest temperature monitored, 55° C., it takes over 30 hours of exposure to eliminate surface activity. The data has been fit with a logistic 4-parameter algorithm using SIGMAPLOT® (available from Systat Software, Inc., Richmond, Calif.). […] The effective control of the surface active properties of the system is envisioned to be accomplished by manipulating one or any combination of these parameters. It should also be noted that all of the surface tension measurements of the cleaved samples were taken after the samples had cooled to ambient conditions, and are convincing evidence that the dissociation accompanying the retro DA is irreversible in micelles.

[3] = retro-DA degradation via 1H NMR; conditions: 65° C., 10 mM aqueous sample, isothermal
Source text: Percent degradation was tracked by recording the decrease in the integral value for the bridge head proton of the DA adduct located at 5.02 ppm. […] It is important to note that the percent degradation of surfactant 5 over various temperatures is not necessarily linear. This is a result of the Keq for the reversible DA reaction with DA adduct formation/stability dominating at lower temperatures.

Structure (SMILES): CCCCCCCCCCCCC12C=CC(O1)C1C(=O)N(c3ccc(S(=O)(=O)[O-])cc3)C(=O)C12.[Na+] (stereo not drawn) [surfactant 3, exo-4-Dodecyl-7-oxabicyclo[2.2.1]hept-5-ene-2,3-dicarboxy-N-(4-sodiumsulfophenyl)imide]
- cmc by dynamic surface tension measurements ([1]; 25.0±0.2° C., bubble frequency 0.5 Hz): 5.1 mM
- second inflection point of surface tension vs concentration (micelles begin to form) ([1]; FIG. 2): ~5 mM
- time of exposure to eliminate surface activity ([2]; 55° C.): over 30 hours
- time of exposure to loss of all surface activity (surface tension is that of water) ([2]; 95° C.): ≤ 1 h
- time of heating to complete degradation (1H NMR) [3]: about 10 hours
